Each structure is given as a SMILES string.

This assay deals with CB-1 receptor. Description: CB-1 receptor binding assay ([3H]SR141716A displacement). The settings on record: rat or human protocol not specified.

Description: The following assays were designed to detect compounds that inhibit the binding of [^3H] SR141716A (selective radiolabeled CB-1 ligand) and [^3H]
PelFreeze brains (available from Pel Freeze Biologicals, Rogers, Ark.) were cut up and placed in tissue preparation buffer (5 mM Tris HCl, pH=7.4 and 2 mM EDTA), polytroned at high speed and kept on ice for 15 minutes. The homogenate was then spun at 1,000×g for 5 minutes at 4° C. The supernatant was recovered and centrifuged at 100,000×G for 1 hour at 4° C. […] A protein assay was performed and 200 μl of tissue totaling 20 μg was added to the assay.
The test compounds were diluted in drug buffer (0.5% BSA, 10% DMSO and TME) and then 25 μl were added to a deep well polypropylene plate. [^3H] SR141716A was diluted in a ligand buffer (0.5% BSA plus TME) and 25 μl were added to the plate. A BCA protein assay was used to determine the appropriate tissue concentration and then 200 μl of rat brain tissue at the appropriate concentration was added to the plate. […] In the morning the filters were counted on a Wallac Betaplate™ counter (available from PerkinElmer Life Sciences™, Boston, Mass.). […]
The test compounds were diluted in drug buffer (0.5% BSA, 10% DMSO and TME) and then 25 μl were added to a deep well polypropylene plate. […] In the morning the filters were counted on a Wallac Betaplate™ counter (available from PerkinElmer Life Sciences™, Boston, Mass.).

Compound `O=C([O-])C1(Nc2ncnc3c2nc(-c2ccccc2Cl)n3-c2ccc(Cl)cc2)CCCC1.[K+]` [Example 19A-1, 1-[9-(4-chlorophenyl)-8-(2-chlorophenyl)-9H-purin-6-ylamino]-cyclopentanecarboxylic Acid, Potassium Salt] yielded a binding activity of 2.8 nM.

For `NC1(C(=O)[O-])CCN(c2ncnc3c2nc(-c2ccccc2Cl)n3-c2ccc(Cl)cc2)CC1.[K+]` [Example 19A-2, 4-Amino-1-[9-(4-chlorophenyl)-8-(2-chlorophenyl)-9H-purin-6-yl]-piperidine-4-carboxylic Acid, Potassium Salt], the binding activity was 1.2 nM.

Source of the values: patent US7129239B2, “Purine compounds and uses thereof” (Pfizer Inc., priority 2002, dated 2006).
